# From US9446061B2, “Composition containing antibiotics and lysophosphatidylcholine for boosting immunity or treatment of bacterial infections” (priority 2011, dated 2016)
# Tests used:
# [1] = test system: splenic CD3+, CD4+, CD8+ and TNF-α+ cells; assay: Immunohistochemistry of spleen in CPA-treated mice; assay type: in vivo, ICR mice
# Procedure: (§1) After deparraffinized, CD3 epitope retrievals were conducted in 10 mM Tris-1 mM EDTA Buffer (pH 9.0), CD4 and CD8 in 1 mM EDTA Buffer (pH 8.0), and TNF-α in 10 mM Citrate Buffer (pH 6.0) as previous methods. Primary anti-antibodies used in the invention were as following table.
# (§2) The water bath with a staining dish, containing a buffer, was preheated until the temperature reached 95-100. The staining dish was placed at room temperature and the slides were cooled for 20 minutes. After epitope retrivals, sections were immunostained as following steps
# (§3) First, the sections were incubated with methanol and 0.3% H2O2 for 30 min to block endogenous peroxidase activity at room temperature, and then rinsed three times in 0.01M phosphate buffered saline (PBS; pH 7.2) for 3 times. Then, the sections were incubated with the normal horse serum blocking solution (Vector Lab. Inc., CA, USA., dilution 1:100) for 1 hr at room temperature in a humidity chamber, to block non-specific binding of immunoglobulin, and then rinsed three times in 0.01M PBS. The sections were incubated with four types of primary antisera for 12 hrs at 4 in a humidity chamber, and then rinsed three times in 0.01M PBS. The sections were incubated with universal biotinylated secondary antibody for 1 hr at room temperature in a humidity chamber, and then rinsed three times in 0.01M PBS. The sections were incubated with ABC reagents (Vectastain Elite ABC Kit, Vector Lab. Inc., CA, USA. Dilution 1:50) for 1 hr at room temperature in a humidity chamber, and then rinsed three times in 0.01M PBS. The sections were incubated in the peroxidase substrate kit (Vector Lab. Inc., CA) for 30 seconds at room temperature, and then rinsed three times in 0.01M PBS. The sections were counterstained with the Mayer's hematoxylin solution, and then rinsed in running tap water for 30 minutes. The sections were dehydrated through 95% ethanol for 2 min and 100% ethanol for […], and then rinsed in xylene for 2 hrs. After that, the sections were observed using a cover slip with permanent mounting medium under the light microscope (Zeiss, Germany).
# (§4) Histomorphometry—Among 1000 splenic or thymic cells, the numbers (N) of immunoreactive cells (CD3+, CD4+, CD8+, and TNF-α+) were observed as N/1000 splenocytes or thymocytes using automated image analysis. In thymus, the counts were conducted in the both cortex and medulla separately.
# [2] = test system: CPA-CLP sepsis mouse model; assay: Effects of LPC, LPC isomers, Xigris and DW286aa on mortalities/survivabilities in CPA-CLP sepsis mouse model (SEP009); single i.v. 6 hrs after CLP; assay type: in vivo
# Procedure: (§5) CPA is well known as an immunosuppressive agent. […] Then, the abdomen was closed following the general procedure.
# (§6) Then, body weight and mortality changes were observed.
# In the Sham and CLP control groups, 10 ml/kg of only sterile physiological saline was single intravenously dosed.
# [3] = test system: CPA-CLP sepsis mouse model; assay: Combination effects of LPC and antibiotics (colistin, tobramycin, fusidin) in CPA-CLP sepsis mouse model (SEP013); single i.v. 6 hrs after CLP; assay type: in vivo, ICR mice; details: mpk: LPC 5, DW286aa 5, Colistin 5, Tobra 4, Fusidin 80, LPC + Colistin 5 + 5, LPC + Tobra 5 + 4, LPC + Fusidin 5 + 80
# From the text: as §5, §6
# [4] = Body weight of CPA-CLP mice (Example 9); details: LPC 1, DW286 0.5, Mix 0.75 mg/kg
# Procedure: In CPA-CLP model, body weight and mortalities were measured once a day for 5 days with automatic electronic balances (Sartorius Co., Ltd., USA), once a day for 2 days in CPA-treated model. All animals were overnight fasted at CPA dosing, CLP or initial dosing to reduce differences from feeding. In addition, body weight gains were calculated as follows:
# CPA-CLP Model: Body weight at sacrifice—at CLP(5 days)
# Then, mortalities, changes in thymus and spleen weights, changes in white blood cell (WBC) number, and changes in thymic and splenic CD3+, CD4+, CD8+, and TNF-α+ cell numbers, were evaluated together with changes in bone marrow polychromatic erythrocytes contain micronuclei (MNPCE) number.
# (§7) Appropriate doses of candidate materials were dissolved in 5% human serum albumin, and subcutaneously dosed at 10 ml/kg (of body weight), 4 times 12-hr intervals from 6 hrs after CLP or 24 hrs after last CPA-dosing, respectively. In the INTACT, CPA, or CPA-CLP control groups, an equal volume of 5% human serum albumin was dosed by the same procedure.
# [5] = test system: thymic CD3+, CD4+, CD8+ and TNF-α+ cells; assay: Immunohistochemistry of thymus (cortex and medulla) in CPA-treated mice; assay type: in vivo, ICR mice
# Procedure: as §1, §2, §3, §4
# [6] = test system: bone marrow polychromatic erythrocytes; assay: Bone marrow MNPCE and PCE/(PCE+NCE) in CPA-treated mice; details: LPC 1, DW286 0.5, Mix 0.75 mg/kg
# Procedure: In Intact control animals, equal volume of saline was only dosed instead of CPA with same methods.
# In brief, bone marrow cells were collected from aforementioned femur in 3 ml of inactivated fetal bovine serum (GIBCO BRL, USA), centrifuged, and smeared on slide. Preparations were dried, and fixed by submerging in absolute methanol (for 10˜20 min). Fixed slides were stained as follow:
# Slides were randomly coded and examined under×1000 magnification by two different experts. Small round or oval shaped bodies, size of which ranging about ⅕ to 1/20 of diameter of PCE, were counted as micronuclei. Attention was given to discriminate micronuclei from artifacts. Results were expressed as the number of MNPCEs in 1000 PCEs. Mean number of MNPCE±S.D. was calculated for each treatment group.
# as §7
# [7] = LPC 1, DW286 0.5, Mix 0.75 mg/kg
# [8] = spleen, CPA-treated mice, Mean ± S.D., n = 9
# [9] = LPC, LPC18:0, LPC18:1, LPA 5 mpk, Xigris 0.4 mpk, DW286aa 10 mpk, 1st CPA treat
# [10] = LPC, LPC18:0, LPC18:1, LPA 5 mpk, Xigris 0.4 mpk, DW286aa 10 mpk, 2nd CPA treat
# [11] = LPC, LPC18:0, LPC18:1, LPA 5 mpk, Xigris 0.4 mpk, DW286aa 10 mpk, At CLP (day 0)
# [12] = LPC, LPC18:0, LPC18:1, LPA 5 mpk, Xigris 0.4 mpk, DW286aa 10 mpk, Day 1
# [13] = LPC, LPC18:0, LPC18:1, LPA 5 mpk, Xigris 0.4 mpk, DW286aa 10 mpk, Day 2
# [14] = LPC, LPC18:0, LPC18:1, LPA 5 mpk, Xigris 0.4 mpk, DW286aa 10 mpk, Day 3
# [15] = LPC, LPC18:0, LPC18:1, LPA 5 mpk, Xigris 0.4 mpk, DW286aa 10 mpk, Day 4
# [16] = LPC, LPC18:0, LPC18:1, LPA 5 mpk, Xigris 0.4 mpk, DW286aa 10 mpk, Day 5
# [17] = LPC, LPC18:0, LPC18:1, LPA 5 mpk, Xigris 0.4 mpk, DW286aa 10 mpk, Day 6
# [18] = LPC, LPC18:0, LPC18:1, LPA 5 mpk, Xigris 0.4 mpk, DW286aa 10 mpk, Day 7
# [19] = LPC, LPC18:0, LPC18:1, LPA 5 mpk, Xigris 0.4 mpk, DW286aa 10 mpk, Day 8
# [20] = LPC, LPC18:0, LPC18:1, LPA 5 mpk, Xigris 0.4 mpk, DW286aa 10 mpk, Day 9
# [21] = LPC, LPC18:0, LPC18:1, LPA 5 mpk, Xigris 0.4 mpk, DW286aa 10 mpk, Day 10
# [22] = LPC, LPC18:0, LPC18:1, LPA 5 mpk, Xigris 0.4 mpk, DW286aa 10 mpk, Total
# [23] = Xigris 2 mpk, DW286aa 20 mpk, 1st CPA treat
# [24] = Xigris 2 mpk, DW286aa 20 mpk, 2nd CPA treat
# [25] = Xigris 2 mpk, DW286aa 20 mpk, At CLP (day 0)
# [26] = Xigris 2 mpk, DW286aa 20 mpk, Day 1
# [27] = Xigris 2 mpk, DW286aa 20 mpk, Day 2
# [28] = Xigris 2 mpk, DW286aa 20 mpk, Day 3
# [29] = Xigris 2 mpk, DW286aa 20 mpk, Day 4
# [30] = Xigris 2 mpk, DW286aa 20 mpk, Day 5
# [31] = Xigris 2 mpk, DW286aa 20 mpk, Day 6
# [32] = Xigris 2 mpk, DW286aa 20 mpk, Day 7
# [33] = Xigris 2 mpk, DW286aa 20 mpk, Day 8
# [34] = Xigris 2 mpk, DW286aa 20 mpk, Day 9
# [35] = Xigris 2 mpk, DW286aa 20 mpk, Day 10
# [36] = Xigris 2 mpk, DW286aa 20 mpk, Total
# [37] = thymus cortex, CPA-treated mice, Mean ± S.D., n = 9
# [38] = thymus medulla, CPA-treated mice, Mean ± S.D., n = 9
smiles,measurement,setting,value
"CON=C1CN(c2nc3c(cc2F)c(=O)c(C(=O)O)cn3C2CC2)CC1(C)CN.Cl (stereo not drawn) [DW286aa, 7-[3-(aminomethyl)-4-(methoxyimino)-3-methyltetrahydro-1H-1-pyrrolyl]-1-cyclopropyl-6-fluoro-4-oxo-1,4-dihydro[1,8]naphthyridine-3-carboxylic acid hydrochloric acid salt]","numbers of splenic CD3+ cells, change compared to CPA control",[1]; [7],−14.02%
same,"numbers of splenic CD4+ cells, change compared to CPA control",[1]; [7],−10.82%
same,"numbers of splenic CD8+ cells, change compared to CPA control",[1]; [7],−10.63%
same,"splenic TNF-α+ cells, change compared to CPA control",[1]; [7],−13.840%
same,"CD3+ cells, Spleen (IHC-Histomorphometry)",[1]; [8],55.89 N/1000 splenocytes or thymocytes
same,"CD4+ cells, Spleen (IHC-Histomorphometry)",[1]; [8],41.22 N/1000 splenocytes or thymocytes
same,"CD8+ cells, Spleen (IHC-Histomorphometry)",[1]; [8],45.78 N/1000 splenocytes or thymocytes
same,"TNF-α+ cells, Spleen (IHC-Histomorphometry)",[1]; [8],40.11 N/1000 splenocytes or thymocytes
same,Mortalities,[2]; [9],0
same,survivabilities,[2]; [9],100%
same,Mortalities,[2]; [10],0
same,survivabilities,[2]; [10],100%
same,Mortalities,[2]; [11],0
same,survivabilities,[2]; [11],100%
same,Mortalities,[2]; [12],1
same,survivabilities,[2]; [12],90%
same,Mortalities,[2]; [13],2
same,survivabilities,[2]; [13],70%
same,Mortalities,[2]; [14],0
same,survivabilities,[2]; [14],70%
same,Mortalities,[2]; [15],0
same,survivabilities,[2]; [15],70%
same,Mortalities,[2]; [16],0
same,survivabilities,[2]; [16],70%
same,Mortalities,[2]; [17],0
same,survivabilities,[2]; [17],70%
same,Mortalities,[2]; [18],2
same,survivabilities,[2]; [18],50%
same,Mortalities,[2]; [19],1
same,survivabilities,[2]; [19],40%
same,Mortalities,[2]; [20],1
same,survivabilities,[2]; [20],30%
same,Mortalities,[2]; [21],0
same,survivabilities,[2]; [21],30%
same,Mortalities,[2]; [22],7
same,survivabilities,[2]; [22],30%
same,Mortalities,[2]; [23],0
same,survivabilities,[2]; [23],100%
same,Mortalities,[2]; [24],0
same,survivabilities,[2]; [24],100%
same,Mortalities,[2]; [25],0
same,survivabilities,[2]; [25],100%
same,Mortalities,[2]; [26],0
same,survivabilities,[2]; [26],100%
same,Mortalities,[2]; [27],1
same,survivabilities,[2]; [27],90%
same,Mortalities,[2]; [28],1
same,survivabilities,[2]; [28],80%
same,Mortalities,[2]; [29],0
same,survivabilities,[2]; [29],80%
same,Mortalities,[2]; [30],0
same,survivabilities,[2]; [30],80%
same,Mortalities,[2]; [31],2
same,survivabilities,[2]; [31],60%
same,Mortalities,[2]; [32],1
same,survivabilities,[2]; [32],50%
same,Mortalities,[2]; [33],0
same,survivabilities,[2]; [33],50%
same,Mortalities,[2]; [34],1
same,survivabilities,[2]; [34],40%
same,Mortalities,[2]; [35],1
same,survivabilities,[2]; [35],30%
same,Mortalities,[2]; [36],7
same,survivabilities,[2]; [36],30%
same,Mortalities,[3]; 1st CPA treat,0
same,Survivalities,[3]; 1st CPA treat,100%
same,Mortalities,[3]; 2nd CPA treat,0
same,Survivalities,[3]; 2nd CPA treat,100%
same,Mortalities,[3]; At CLP (day 0),0
same,Survivalities,[3]; At CLP (day 0),100%
same,Mortalities,[3]; Day 1,0
same,Survivalities,[3]; Day 1,100%
same,Mortalities,[3]; Day 2,0
same,Survivalities,[3]; Day 2,100%
same,Mortalities,[3]; Day 3,2
same,Survivalities,[3]; Day 3,80%
same,Mortalities,[3]; Total,2
same,Survivalities,[3]; Total,80%
same,Body weight,[4]; 1 day after CLP,31.50 ± 1.34 g
same,Body weight,[4]; 2 days after CLP,29.88 ± 0.98 g
same,Body weight,[4]; 3 days after CLP,30.97 ± 0.99 g
same,Body weight,[4]; At CLP (overnight fasted),33.77 ± 1.42 g
same,Body weight,[4]; At First CPA dosing (overnight fasted),34.32 ± 1.32 g
same,"numbers of thymic cortex CD3+ cells, change compared to CPA control",[5]; [7],−9.16%
same,"numbers of thymic cortex CD4+ cells, change compared to CPA control",[5]; [7],21.74%
same,"numbers of thymic cortex CD8+ cells, change compared to CPA control",[5]; [7],33.33%
same,"numbers of thymic medulla CD3+ cells, change compared to CPA control",[5]; [7],−33.33%
same,"numbers of thymic medulla CD4+ cells, change compared to CPA control",[5]; [7],27.27%
same,"numbers of thymic medulla CD8+ cells, change compared to CPA control",[5]; [7],−22.22%
same,"thymic cortex TNF-α+ cells, change compared to CPA control",[5]; [7],−13.040%
same,"thymic medulla TNF-α+ cells, change compared to CPA control",[5]; [7],0.00%
same,"CD3+ cells, Thymus: Cortex (IHC-Histomorphometry)",[5]; [37],165.33 N/1000 splenocytes or thymocytes
same,"CD4+ cells, Thymus: Cortex (IHC-Histomorphometry)",[5]; [37],3.11 N/1000 splenocytes or thymocytes
same,"CD8+ cells, Thymus: Cortex (IHC-Histomorphometry)",[5]; [37],4.00 N/1000 splenocytes or thymocytes
same,"TNF-α+ cells, Thymus: Cortex (IHC-Histomorphometry)",[5]; [37],2.22 N/1000 splenocytes or thymocytes
same,"CD3+ cells, Thymus: Medulla (IHC-Histomorphometry)",[5]; [38],0.22 N/1000 splenocytes or thymocytes
same,"CD4+ cells, Thymus: Medulla (IHC-Histomorphometry)",[5]; [38],1.78 N/1000 splenocytes or thymocytes
same,"CD8+ cells, Thymus: Medulla (IHC-Histomorphometry)",[5]; [38],1.56 N/1000 splenocytes or thymocytes
same,"TNF-α+ cells, Thymus: Medulla (IHC-Histomorphometry)",[5]; [38],0.00 N/1000 splenocytes or thymocytes
same,"MNPCE numbers, change compared to CPA control",[6],−10.85%
same,"PCE/(PCE+NCE), change compared to CPA control",[6],−14.79%
same,NCE,[6]; among 500 erythrocytes,379.67 ± 17.07
same,PCE,[6]; among 500 erythrocytes,120.33 ± 17.07
same,PCE/(NCE + PCE),[6]; among 500 erythrocytes,0.24 ± 0.03
same,% MNPCE,[6]; among 1000 PCEs,2.56 ± 0.57 %
